Measured values reported in US20220313662A1, “SUCCINATE DEHYDROGENASE INHIBITORS FOR BREAKING DORMANCY” (Valent BioSciences LLC, priority 2021, published 2022).

Tests used:
Type in all cases: in vivo
Concord grape vines [1] = assay: Example 1: bud break and shoot weight of potted Concord grape vines in a greenhouse; settings: for shoot weight, more than control / Shoot Weight: 41 days after treatment; for time to 50% bud break, faster than control: rates of Table 1: malonate 3,000 and 10,000 ppm, penthiopyrad 1,428 ppm, inpyrfluxam 486 ppm, pydiflumetofen 968 ppm
Protocol: (§1) To assess the ability of SDHIs to promote and synchronize bud break and increase shoot weight, SDHIs were applied to shoots of potted 1 year old Concord grape vines grown in a greenhouse and examined for bud break (initiation of growth). Hydrogen cyanamide, malonate (malonic acid), inpyrfluxam, penthiopyrad and pydiflumetofen were each applied individually to the shoots of five potted concord grape rootstocks that were pruned to 5 nodes. Plants were evaluated for bud break periodically starting at 5 days after treatment. Plants were evaluated for shoot weight at 41 days after treatment.

Concord grape vines [2] = assay: Example 2: bud break and shoot weight of potted Concord grape vines, single SDHIs and mixtures (OCE/ECE, Abbott method); settings: for Shoot Weight: 41 days after treatment
Protocol: as §1, with “of” for “of potted”, “old potted” for “old”, “inpyrfluxam,” for “inpyrfluxam, penthiopyrad”, “mixtures of malonate and inpyrfluxam” for “pydiflumetofen”, “applied” for “applied individually”
To determine if the mixtures provided unexpected results, the observed combined efficacy (“OCE”) was divided by the expected combined efficacy (“ECE”) to give an OCE/ECE ratio wherein the expected ECE is calculated by the Abbott method: […]
wherein ECE is the expected combined efficacy and in which A and B are the efficacy provided by the single active ingredients. If the ratio between the OCE of the mixture and the ECE of the mixture is greater than 1, then greater than expected interactions are present in the mixture. (Gisi, The American Phytopathological Society, 86:11, 1273-1279, 1996).

Thompson seedless grapes [3] = assay: Example 3: field trial, bud break and shoot growth of Thompson seedless grapes
Protocol: Thompson seedless grapes were grown in the field in Kanoneiland, Northern Cape, South Africa during the 2021 growing season. Hydrogen cyanamide, malonate (malonic acid), and inpyrfluxam were each applied to the shoots of grape plants at 2 or 4 weeks before natural bud break. Plants were evaluated for bud break at 7 and 21 days after 1st bud break.

Thompson seedless grapes [4] = assay: as above; set-up: Shoot Growth: unit not given beside the values; settings: for Shoot Growth: equals sum of the three length classes
[5] = 486 ppm, applied 2 weeks before natural bud break
[6] = 486 ppm, applied 4 weeks before natural bud break
[7] = 486 ppm (Table 4), 2 weeks before natural bud break
[8] = 486 ppm, 2 weeks before natural bud break
[9] = 486 ppm, 4 weeks before natural bud break
[10] = 2% v/v, 4 weeks before natural bud break
[11] = 2% v/v, applied 4 weeks before natural bud break
[12] = applied at 10,000 ppm to shoots
[13] = 10,000 ppm, applied 2 weeks before natural bud break
[14] = 10,000 ppm, applied 4 weeks before natural bud break
[15] = 10,000 ppm (Table 4), 2 weeks before natural bud break
[16] = 10,000 ppm, 2 weeks before natural bud break
[17] = 10,000 ppm, 4 weeks before natural bud break

## CC1CC(C)(C)c2c(F)ccc(NC(=O)c3cn(C)nc3C(F)F)c21 (stereo not shown) [Inpyrfluxam, inpyrfluxam]
Concord grape vines [1]; 486 ppm (Table 1)
  shoot weight, more than control: 44%
Concord grape vines [1]; applied at 486 ppm to shoots
  Days to 50% BB: 9 days
  Days to 100% BB: 17 days
Concord grape vines [1]; applied at 486 ppm
  Shoot Weight: 47 g
Concord grape vines [1]
  time to 50% bud break, faster than control: about 25%
Concord grape vines [2]; 486 ppm
  time to 50% bud break, faster than control: about 12%
  time to 100% bud break, faster than control: 19%
Concord grape vines [2]; 972 ppm
  time to 100% bud break, faster than control: 38%
Concord grape vines [2]; applied at 97.2 ppm to shoots
  Days to 50% BB: 27 days
  Days to 100% BB: 17 days
Concord grape vines [2]; applied at 97.2 ppm
  Shoot Weight: 9.1 g
Concord grape vines [2]; applied at 194.4 ppm to shoots
  Days to 50% BB: 29 days
  Days to 100% BB: 28 days
Concord grape vines [2]; applied at 194.4 ppm
  Shoot Weight: 5.4 g
Concord grape vines [2]; applied at 486 ppm to shoots
  Days to 50% BB: 22 days
  Days to 100% BB: 13 days
Concord grape vines [2]; applied at 486 ppm
  Shoot Weight: 7.6 g
Concord grape vines [2]; applied at 972 ppm to shoots
  Days to 50% BB: 27 days
  Days to 100% BB: 10 days
Concord grape vines [2]; applied at 972 ppm
  Shoot Weight: 6.2 g
Thompson seedless grapes [3]; [5]
  Bud Break % at 7 days after 1st bud break: 29.7 a %
  Bud Break % at 21 days after 1st bud break: 100 f %
Thompson seedless grapes [3]; 486 ppm, applied 2 weeks before natural bud break, listed as inpyrfluxam
  Bud Break % at 21 days after 1st bud break: statistically significant increase over control
Thompson seedless grapes [3]; [6]
  Bud Break % at 7 days after 1st bud break: 36.8 a %
Thompson seedless grapes [4]; [7]
  increase in shoot growth over Dormex: 15%
  increase in shoot growth over control: 50%
Thompson seedless grapes [4]; 486 ppm (Table 4), 4 weeks before natural bud break
  increase in shoot growth over control: 27%
Thompson seedless grapes [4]; [8]
  Shoot Growth (%) 1-5 cm: 27.7%
  Shoot Growth (%) 5-10 cm: 21.1%
  Shoot Growth (%) >10 cm: 28.8 c %
  Shoot Growth: 77.6
Thompson seedless grapes [4]; [9]
  Shoot Growth (%) 1-5 cm: 25.9%
  Shoot Growth (%) 5-10 cm: 20.3%
  Shoot Growth (%) >10 cm: 19.7 b %
  Shoot Growth: 65.8
Thompson seedless grapes [4]; [6]
  Bud Break % at 21 days after 1st bud break: 90.3 def %
Thompson seedless grapes [4]; 486 ppm, applied 4 weeks before natural bud break, listed as inpyrfluxam
  Bud Break % at 21 days after 1st bud break: statistically significant increase over control

## CON(C(=O)c1cn(C)nc1C(F)F)C(C)Cc1c(Cl)cc(Cl)cc1Cl (stereo not shown) [Pydiflumetofen, pydiflumetofen]
Concord grape vines [1]; applied at 968 ppm to shoots
  Days to 50% BB: 9 days
  Days to 100% BB: 26 days
Concord grape vines [1]; applied at 968 ppm
  Shoot Weight: 24 g
Concord grape vines [1]
  time to 50% bud break, faster than control: about 25%

## N#CN [Hydrogen cyanamide, hydrogen cyanamide]
Concord grape vines [1]; applied at 2% v/v to shoots
  Days to 50% BB: 12 days
  Days to 100% BB: 17 days
Concord grape vines [1]; applied at 2% v/v
  Shoot Weight: 27.4 g
Concord grape vines [1]; rates of Table 1, hydrogen cyanamide 2% v/v
  effect on the number of days to 50% bud break (in words): no effect
Concord grape vines [2]; applied at 2% v/v to shoots
  Days to 50% BB: 18 days
  Days to 100% BB: 16 days
Concord grape vines [2]; applied at 2% v/v
  Shoot Weight: 8.9 g
Thompson seedless grapes [4]; [10]
  Shoot Growth (%) 1-5 cm: 21.7%
  Shoot Growth (%) 5-10 cm: 16.1%
  Shoot Growth (%) >10 cm: 29.3 c %
  Shoot Growth: 67.2
Thompson seedless grapes [4]; [11]
  Bud Break % at 7 days after 1st bud break: 63.2 b %
  Bud Break % at 21 days after 1st bud break: 81.3 bcd %

## CC(C)CC(C)c1sccc1NC(=O)c1cn(C)nc1C(F)(F)F (stereo not shown) [Penthiopyrad, penthiopyrad]
Concord grape vines [1]; 1,428 ppm (Table 1)
  days to 100% bud break, faster than control: 38%
Concord grape vines [1]; applied at 1,428 ppm to shoots
  Days to 50% BB: 7 days
  Days to 100% BB: 13 days
Concord grape vines [1]; applied at 1,428 ppm
  Shoot Weight: 29.4 g
Concord grape vines [1]
  time to 50% bud break, faster than control: about 40%

## O=C(O)CC(=O)O [Malonate, malonic acid]
Concord grape vines [1]; 3,000 ppm
  days to 100% bud break, faster than control: 10%
  shoot weight, more than control: 28%
Concord grape vines [1]; 10,000 ppm
  days to 100% bud break, faster than control: 19%
  shoot weight, more than control: 58%
Concord grape vines [1]; applied at 3,000 ppm to shoots
  Days to 50% BB: 7 days
  Days to 100% BB: 19 days
Concord grape vines [1]; applied at 3,000 ppm
  Shoot Weight: 41.75 g
Concord grape vines [1]; [12]
  Days to 50% BB: 7 days
  Days to 100% BB: 17 days
Concord grape vines [1]; applied at 10,000 ppm
  Shoot Weight: 51.4 g
Concord grape vines [1]
  time to 50% bud break, faster than control: about 40%
Concord grape vines [2]; 1,000 ppm, 3,000 ppm and 10,000 ppm
  time to 50% bud break, faster than control: about 4%
Concord grape vines [2]; 10,000 ppm
  time to 100% bud break, faster than control: 25%
Concord grape vines [2]; applied at 300 ppm to shoots
  Days to 50% BB: 25 days
  Days to 100% BB: 20 days
Concord grape vines [2]; applied at 300 ppm
  Shoot Weight: 8.0 g
Concord grape vines [2]; applied at 1,000 ppm to shoots
  Days to 50% BB: 24 days
  Days to 100% BB: 26 days
Concord grape vines [2]; applied at 1,000 ppm
  Shoot Weight: 8.8 g
Concord grape vines [2]; applied at 3,000 ppm to shoots
  Days to 50% BB: 24 days
  Days to 100% BB: 17 days
Concord grape vines [2]; applied at 3,000 ppm
  Shoot Weight: 8.5 g
Concord grape vines [2]; [12]
  Days to 50% BB: 24 days
  Days to 100% BB: 12 days
Concord grape vines [2]; applied at 10,000 ppm
  Shoot Weight: 7.9 g
Thompson seedless grapes [3]; [13]
  Bud Break % at 7 days after 1st bud break: 33.7 a %
  Bud Break % at 21 days after 1st bud break: statistically significant increase over control
Thompson seedless grapes [3]; [14]
  Bud Break % at 7 days after 1st bud break: 29 a %
Thompson seedless grapes [4]; [15]
  increase in shoot growth over Dormex: 11%
  increase in shoot growth over control: 44%
Thompson seedless grapes [4]; 10,000 ppm (Table 4), 4 weeks before natural bud break
  increase in shoot growth over control: 20%
Thompson seedless grapes [4]; [16]
  Shoot Growth (%) 1-5 cm: 23.3%
  Shoot Growth (%) 5-10 cm: 19.1%
  Shoot Growth (%) >10 cm: 32 c %
  Shoot Growth: 74.5
Thompson seedless grapes [4]; [17]
  Shoot Growth (%) 1-5 cm: 27.7%
  Shoot Growth (%) 5-10 cm: 17.8%
  Shoot Growth (%) >10 cm: 16.6 b %
  Shoot Growth: 62
Thompson seedless grapes [4]; [13]
  Bud Break % at 21 days after 1st bud break: 98.2 ef %
Thompson seedless grapes [4]; [14]
  Bud Break % at 21 days after 1st bud break: 87.5 cde %
